Experimental data: article PMC11758220, “Identification of a Privileged Scaffold for Inhibition of Sterol Transport Proteins through the Synthesis and Ring Distortion of Diverse, Pseudo-Natural Products” (ACS Central Science, 2025)

Target: T1, STARD5 (Homo sapiens, UniProt Q9NSY2)
T1 construct: STARD5(6-213); host or cells: E. coli BL21(DE3)
T1 sequence (Q9NSY2 6-213): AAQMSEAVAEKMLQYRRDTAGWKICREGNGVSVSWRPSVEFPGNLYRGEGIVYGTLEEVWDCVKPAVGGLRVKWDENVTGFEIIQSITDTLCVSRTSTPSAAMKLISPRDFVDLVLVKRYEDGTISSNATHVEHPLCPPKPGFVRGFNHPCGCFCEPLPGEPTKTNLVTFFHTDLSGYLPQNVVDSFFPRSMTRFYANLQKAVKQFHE
Test: Differential scanning fluorimetry (DSF), STARD5
Format: binding
Details: for ΔTm at 10 µM / STARD5 (DSF) ΔTm: single dose, Dose = 10 µM; for Kd: apparent Kd, mean of three experiments run in technical duplicates, read-out: STARD5 Kd,app (DSF); for STARD5 (DSF) ΔTmmax: maximal thermal shift
Text: Protein expression constructs
Human ASTER domains of Aster-A(359-547), -B(364-552) and -C(318-504) were subcloned into a pGEX-6p-2rbs vector, thus introducing the cloning artifact ‘GPLGS’.3 The pGEX-6P-1-GST-OSBP(377- […]
a gift from James H. Hurley (University of California).4 The pHIS_2His6_Thrombin_STARD4(2-205;C75S) plasmid was a gift from Young Jun Im (Chonnam National University).5 STARD5A was a gift from Nicola Burgess-Brown (Addgene plasmid #42392; http://n2t.net/addgene:42392; […]
Protein expression and purification […]
vectors including an N-terminal PreScission-cleavable glutathione S-transferase (GST)-tag were expressed in Escherichia coli (E. coli) OverExpress C41 in Terrific Broth (TB) medium for 16 h at 18 °C after the induction with 0.1 mM isopropyl β-D-1-thiogalactopyranoside (IPTG). Cells were harvested at 3500 × g for 15 minutes and lysed by sonication in buffer containing 50 mM HEPES pH 7.5, 300 mM NaCl, 10 %v/v glycerol, 5 mM dithiothreitol (DTT), 0.1 %v/v Triton X-100 and protease inhibitor mix HP plus (Serva). The lysate was purified by affinity chromatography on a GSTrap FF column (Cytiva) using an ÄKTA Start (Cytiva) in buffer containing 50 mM HEPES pH 7.5, 300 mM NaCl, 10 %v/v glycerol, 5 mM DTT and 0.01 %v/v Triton X-100. The GST-tag was cleaved overnight on the column at 4 °C. The Aster sterol binding domains were further purified by size-exclusion chromatography (SEC) on a HiLoad 16/600 Superdex 75 pg (Cytiva) in buffer containing 20 mM HEPES pH 7.5, 300 mM NaCl, 10 %v/v […]
STARD5(6-213) harboring an N-terminal His6-Tag were expressed in E. coli BL21(DE3) in Luria-Bertani Broth (LB) medium for approximately 16 h at 18 °C after induction with 0.15 mM IPTG. Cells were harvested at 3500 × g for 15 minutes and lysed by sonication in buffer containing 50 mM HEPES pH 7.5, 150 mM NaCl, 5 %v/v glycerol, 5 mM DTT, 0.1 %v/v Triton X -100 and ethylenediaminetetraacetic acid (EDTA)-free protease inhibitor cocktail (Sigma-Aldrich). The cleared lysate was purified by affinity chromatography on a Ni-NTA Superflow Cartridge (Qiagen) using an ÄKTA Start (Cytiva) in buffer containing 50 mM HEPES pH 7.5, 150 mM NaCl, 5 %v/v glycerol, 5 mM DTT. START domains were eluted by using elution buffer containing 50 mM HEPES pH 7.5, 150 mM NaCl, 5 %v/v glycerol, 5 mM DTT and 500 mM imidazole. Proteins were further purified by SEC on a HiLoad 16/600 Superdex 75 pg (Cytiva) in buffer containing 20 mM HEPES pH 7.5, 150 mM NaCl, 5 %v/v glycerol and 2 mM DTT.
The ORP domain of human OSBP(377-807) in the pGEX-6p-1 vector with an N-terminal PreScission-cleavable GST-tag was expressed in E. coli OverExpress C41 in LB medium for 16 h at 18 °C after induction with 0.1 mM IPTG. Cells were harvested at 3500 × g for 15 minutes and lysed by sonication in buffer containing 20 mM HEPES pH 7.5, 300 mM NaCl, 10 %v/v glycerol, 5 mM DTT, 0.1 %v/v Triton X-100 and EDTA-free protease inhibitor cocktail (Sigma-Aldrich). The cleared lysate was purified by affinity chromatography on a GSTrap HF column (Cytiva) using an ÄKTA Start (Cytiva) in buffer containing 20 mM HEPES pH 7.5, 300 mM NaCl, 10 %v/v glycerol, 5 mM DTT. OSBP(377 -807) was eluted by using elution buffer containing 20 mM HEPES pH 7.5, 300 mM NaCl, 10 %v/v glycerol, 5 mM DTT and 10 mM reduced glutathione. Proteins were further purified by SEC on a HiLoad 16/600 Superdex 75 pg (Cytiva) using an ÄKTA Explorer (Cytiva) in buffer containing 20 mM HEPES pH 7.5, 150 mM NaCl, 10 %v/v glycerol and 2 mM DTT.
The ORP domains of human ORP1(534-950) in pET24b(+) and ORP2(49-480) in the pET24b(+) vector including an N-terminal His6-Tag were expressed in E. coli BL21(DE3) in TB medium for approximately 16 h at 18 °C after induction with 0.1 mM IPTG. Cells were collected at 3500 × g for 15 minutes and lysed by sonification in buffer containing 10 mM Tris-HCl pH 8, 300 mM NaCl, 5 % glycerol, 2 mM DTT, 0.1 % Triton X-100 and EDTA-free protease inhibitor cocktail (Sigma-Aldrich). The cleared […]

SMILES: C[C@]12CC[C@@H]3C[C@H]1CC[C@@]21C(=Nc2ccc(Br)cc21)O3 (racemic) [Compound 15b]
- ΔTm at 10 µM: 0.5 °C

SMILES: CC12CCC3CC1CCC21C(=Nc2ccc(N4CCOCC4)cc21)O3 (racemic) [Compound 19a]
- Kd: > 30 µM
- STARD5 (DSF) ΔTmmax: 3.7 °C
- ΔTm at 10 µM: 1.8 °C

SMILES: CC12CCC3CC1CCC21C(=Nc2ccc(Br)cc21)O3 (single isomer, unassigned; (+)) [(+)-15b]
- Kd: > 100 µM
- STARD5 (DSF) ΔTmmax: 1.1 °C
- ΔTm at 10 µM: -0.0628 °C

SMILES: CC12CCC3CC1CCC21C(=Nc2ccc(N4CCOCC4)cc21)O3 (single isomer, unassigned; (+)) [(+)-19a]
- Kd: > 100 µM
- STARD5 (DSF) ΔTmmax: 1.7 °C
- STARD5 (DSF) ΔTm: 0.32 °C

SMILES: CC12CCC3CC1CCC21C(=Nc2ccc(N4CCOCC4)cc21)O3 (single isomer, unassigned; (-)) [(−)-19a]
- Kd: > 30 µM
- ΔTm at 100 µM (at 100 μM, read-out: STARD5 ΔTm^max): 4.7 °C
- STARD5 (DSF) ΔTmmax: 5.2 °C
- STARD5 (DSF) ΔTm: 3.3 °C

SMILES: C[C@@]12CC[C@H]3C[C@@H]1CC[C@]21C(=Nc2ccc(Br)cc21)O3 [(−)-15b]
- Kd: > 100 µM
- STARD5 (DSF) ΔTmmax: 1.3 °C
- ΔTm at 10 µM: 0.4 °C

SMILES: CC(C)Oc1ccc(C(=O)Nc2nc3c(s2)CN(C(=O)OC(C)(C)C)CC3)cc1 [Autogramin-2, reference compound]
- Kd: > 30 µM
- STARD5 (DSF) ΔTm: 0.211 °C

SMILES: Cc1c2c(nc3ccccc13)[C@@]1(C)CC[C@@H](O)C[C@H]1CC2 [Compound 2a]
- ΔTm at 10 µM: 0.4 °C

SMILES: C[C@]12CC[C@@H](O)C[C@H]1CCc1c2nc2ccccc2c1-c1ccccc1 [Compound 2b]
- STARD5 (DSF) ΔTm: 0.0879 °C

SMILES: Cc1c2c(nc3cc(Br)ccc13)[C@@]1(C)CC[C@@H](O)C[C@H]1CC2 [Compound 2c]
- STARD5 (DSF) ΔTm: 0.543 °C

SMILES: C[C@]12CC[C@@H](O)C[C@H]1CCc1c2nc2ccccc2c1-c1ccc(F)cc1 [Compound 2d]
- ΔTm at 10 µM: 0.0936 °C

SMILES: C[C@]12CC[C@@H](O)C[C@H]1CCc1c2nc2ccc(Cl)cc2c1-c1ccccc1 [Compound 2e]
- STARD5 (DSF) ΔTm: 0.221 °C

SMILES: C[C@]12CC[C@@H](O)C[C@H]1CCc1c2[nH]c2ncccc12 [Compound 3]
- ΔTm at 10 µM: 0.149 °C

SMILES: C[C@]12CC[C@@H](O)C[C@H]1CCC[C@]21Nc2ccccc2-n2cccc21 [Compound 4]
- STARD5 (DSF) ΔTm: 0.276 °C
- ΔTm at 10 µM: 0.138 °C

SMILES: C[C@]12CC[C@@H](O)C[C@H]1CCC[C@]21NC(=O)c2ccccc2N1 [Compound 5a]
- STARD5 (DSF) ΔTm: 0.0773 °C
- ΔTm at 10 µM: 0.0253 °C

SMILES: C[C@]12CC[C@@H](O)C[C@H]1CCC[C@]21NC(=O)c2ccc(F)cc2N1 [Compound 5b]
- STARD5 (DSF) ΔTm: 0.158 °C
- ΔTm at 10 µM: -0.128 °C

SMILES: COc1ccc2c(c1)C(=O)N[C@]1(CCC[C@@H]3C[C@H](O)CC[C@@]31C)N2 [Compound 5c]
- STARD5 (DSF) ΔTm: 0.0259 °C
- ΔTm at 10 µM: 0.117 °C

SMILES: C[C@]12CC[C@@H](O)C[C@H]1CCc1nc3ccccc3nc12 [Compound 7a]
- ΔTm at 10 µM: 0.5 °C

SMILES: Cc1cc2nc3c(nc2cc1C)[C@@]1(C)CC[C@@H](O)C[C@H]1CC3 [Compound 7b]
- ΔTm at 10 µM: 0.328 °C

SMILES: C[C@]12CC[C@@H](O)C[C@H]1CCc1nc3cc(F)c(F)cc3nc12 [Compound 7c]
- STARD5 (DSF) ΔTm: 0.3 °C

SMILES: C[C@]12CC[C@@H](O)C[C@H]1CCc1nc3cc(Cl)c(Cl)cc3nc12 [Compound 7d]
- STARD5 (DSF) ΔTm: -0.24 °C

SMILES: C[C@]12CC[C@@H](O)C[C@H]1CCc1nc3cc(Br)c(Br)cc3nc12 [Compound 7e]
- STARD5 (DSF) ΔTm: 0.245 °C

SMILES: C[C@]12CC[C@@H](O)C[C@H]1CCc1sc(N)nc12 [Compound 8a]
- ΔTm at 10 µM: 0.0867 °C

SMILES: Cc1nc2c(s1)CC[C@@H]1C[C@H](O)CC[C@]21C [Compound 8b]
- STARD5 (DSF) ΔTm: 0.175 °C

SMILES: C[C@]12CC[C@@H](O)C[C@H]1CCc1sc(-c3cccnc3)nc12 [Compound 8c]
- STARD5 (DSF) ΔTm: 0.15 °C

SMILES: COc1ccc(-c2nc3c(s2)CC[C@@H]2C[C@H](O)CC[C@]32C)cc1 [Compound 8d]
- ΔTm at 10 µM: 0.146 °C

SMILES: C[C@]12CC[C@@H](O)C[C@H]1CCc1sc(-c3ccc(F)cc3)nc12 [Compound 8e]
- STARD5 (DSF) ΔTm: 0.216 °C

SMILES: C[C@]12CC[C@@H](O)C[C@H]1CCc1[nH]c(-c3ccccc3)nc12 [Compound 9]
- ΔTm at 10 µM: 0.168 °C

SMILES: C[C@]12CC[C@@H](O)C[C@H]1CCc1c2[nH]c2ccccc12 [Compound 10a]
- STARD5 (DSF) ΔTm: 0.373 °C

SMILES: C[C@]12CC[C@@H](O)C[C@H]1CCc1c2[nH]c2ccc(Br)cc12 [Compound 10b]
- STARD5 (DSF) ΔTm: 0.131 °C

SMILES: C[C@]12CC[C@@H](O)C[C@H]1CCc1c2[nH]c2ccc(Cl)cc12 [Compound 10c]
- STARD5 (DSF) ΔTm: 0.161 °C

SMILES: C[C@]12CC[C@@H](O)C[C@H]1CCc1c2[nH]c2ccc(F)cc12 [Compound 10d]
- STARD5 (DSF) ΔTm: 0.145 °C

SMILES: Cc1ccc2[nH]c3c(c2c1)CC[C@@H]1C[C@H](O)CC[C@]31C [Compound 10e]
- ΔTm at 10 µM: 0.2 °C

SMILES: COc1ccc2[nH]c3c(c2c1)CC[C@@H]1C[C@H](O)CC[C@]31C [Compound 10f]
- ΔTm at 10 µM: 0.159 °C

SMILES: CC12CCC(O)CC1CCc1c2[nH]c2ccc(C(F)(F)F)cc12 (stereo not shown) [Compound 10g]
- ΔTm at 10 µM: 0.162 °C

SMILES: C[C@]12CC[C@@H](O)C[C@H]1CCc1c2[nH]c2ccc(I)cc12 [Compound 10h]
- STARD5 (DSF) ΔTm: 0.241 °C

SMILES: C[C@]12CC[C@@H](O)C[C@H]1CCc1c2[nH]c2c(F)cc(Cl)cc12 [Compound 10i]
- ΔTm at 10 µM: 0.421 °C

SMILES: Cc1cc(C)c2c3c([nH]c2c1)[C@@]1(C)CC[C@@H](O)C[C@H]1CC3 [Compound 10j]
- ΔTm at 10 µM: -0.163 °C

SMILES: CCOC(=O)c1ccc2[nH]c3c(c2c1)CC[C@@H]1C[C@H](O)CC[C@]31C [Compound 10k]
- STARD5 (DSF) ΔTm: 0.2 °C

SMILES: C[C@]12CC[C@@H](O)C[C@H]1CCC(=O)c1ccccc1NC2=O [Compound 11a]
- STARD5 (DSF) ΔTm: 0.0733 °C

SMILES: C[C@]12CC[C@@H](O)C[C@H]1CCC(=O)c1cc(Br)ccc1NC2=O [Compound 11b]
- ΔTm at 10 µM: 0.3 °C

SMILES: Cc1ccc2c(c1)C(=O)CC[C@@H]1C[C@H](O)CC[C@]1(C)C(=O)N2 [Compound 11c]
- ΔTm at 10 µM: -0.119 °C

SMILES: COc1ccc2c(c1)C(=O)CC[C@@H]1C[C@H](O)CC[C@]1(C)C(=O)N2 [Compound 11d]
- ΔTm at 10 µM: 0.0281 °C

SMILES: C[C@]12CC[C@@H](O)C[C@H]1CCC(=O)c1cc(C(F)(F)F)ccc1NC2=O [Compound 11e]
- ΔTm at 10 µM: 0.115 °C

SMILES: C[C@]12CC[C@@H](O)C[C@H]1CCC(=O)c1cc(Cl)cc(F)c1NC2=O [Compound 11f]
- STARD5 (DSF) ΔTm: 0.154 °C
